Measured values: ChEMBL document CHEMBL4477230, “Cytotoxic effect of levoglucosenone and related derivatives against human hepatocarcinoma cell lines” (Bioorg Med Chem Lett, 2016)

Legend:
Format in all cases: functional, cell-based
Huh-7 [1] = test: Cytotoxicity against human HuH7 cells assessed as reduction in cell growth after 48 hrs by MTT assay
HepG2 [2] = test: Cytotoxicity against human HepG2 cells assessed as reduction in cell growth after 48 hrs by MTT assay
Huh-7 [3] = test: Cytotoxicity against human HuH7 cells assessed as reduction in cell growth after 48 hrs by MTS assay; conditions: Huh-7, 48 h
HepG2 [4] = test: Cytotoxicity against human HepG2 cells assessed as reduction in cell growth after 48 hrs by MTS assay; conditions: HepG2, 48 h
[5] = Homo sapiens, Huh-7, 48 h, read-out: IC50
[6] = Homo sapiens, HepG2, 48 h, read-out: IC50

| Compound | IC50 (Huh-7 [1]; huh-7) | IC50 (HepG2 [2]; hepg2) | IC50 (Huh-7 [1]; [5]) [µM] | IC50 (HepG2 [2]; [6]) [µM] | further results |
| --- | --- | --- | --- | --- | --- |
| CCCCS[C@H]1CC(O)[C@@H]2OC[C@H]1O2 (some centres undefined) | Not Active | Not Active | – | – | – |
| Cc1ccc(S[C@H]2CC(O)[C@@H]3OC[C@H]2O3)cc1 (some centres undefined) | Not Active | Not Active | – | – | – |
| O=C1C[C@H](n2c(=O)oc3ccccc32)[C@H]2CO[C@@H]1O2 | – | – | 8.79 | 22.2 | – |
| CNC(=O)c1cc(Oc2ccc(NC(=O)Nc3ccc(Cl)c(C(F)(F)F)c3)cc2)ccn1 [SORAFENIB] | – | – | – | – | IC50 (Huh-7 [3]): 11.3 µM; IC50 (HepG2 [4]): 12 µM |
| O=C1C[C@H](Sc2ccccc2)[C@H]2CO[C@@H]1O2 | – | – | 11 | 17 | – |
| O=C1C(Br)=C[C@H]2CO[C@@H]1O2 | – | – | 4.68 | 14 | – |
| O=C1C=C[C@H]2CO[C@@H]1O2 | – | – | 12.9 | 39.4 | – |
| Cc1ccc(S[C@H]2CC(=O)[C@@H]3OC[C@H]2O3)cc1 | – | – | 12.8 | 27.5 | – |
| O=c1[nH]cc(F)c(=O)[nH]1 [FLUOROURACIL] | – | – | 390 | 205 | – |
| CCCCS[C@H]1CC(=O)[C@@H]2OC[C@H]1O2 | Not Active | Not Active | – | – | – |
| CCCCCCS[C@H]1CC(=O)[C@@H]2OC[C@H]1O2 | Not Active | Not Active | – | – | – |
| COc1cccc2c1C(=O)c1c(O)c3c(c(O)c1C2=O)C[C@@](O)(C(=O)CO)C[C@@H]3O[C@H]1C[C@H](N)[C@H](O)[C@H](C)O1 [DOXORUBICIN] | – | – | 0.24 | 0.68 | – |
